From patent publication US11279726B2, “Norbornene-based amphipathic compound and utilization thereof” (Industry-University Cooperation Foundation Hanyang …, priority 2017, dated 2022)
Entries after “also recorded” stand apart in the source; their conditions may differ.

Columns and labels:
[1] = Critical micelle concentration by fluorescent staining with diphenylhexatriene (DPH); type: physicochemical; conditions: aqueous solution
Procedure: A method for measuring CMC is not particularly limited, and a method widely known in the art may be used, for example, by fluorescence staining with diphenylhexatriene (DPH).
(§1) To identify the characteristics of NBMs synthesized in Preparation Example 1 to 6 according to the synthetic method of Example 1, molecular weights (MWs) of NBMs, critical micelle concentrations (CMCs) and hydrodynamic radii (Rh) of the micelles were measured.
(§2) Specifically, the critical micelle concentrations (CMCs) were measured by fluorescent staining with diphenylhexatriene (DPH), and the hydrodynamic radii (Rh) of the micelle formed with individual agents (1.0 wt %) were measured by dynamic light scattering (DLS).

[2] = Hydrodynamic radius / size distribution of micelles by dynamic light scattering (DLS); type: physicochemical; conditions: for Rh (nm), hydrodynamic radius of micelles: 1.0 wt % agent; for Micelle size change with temperature: temperature-dependent (FIGS. 7a, 7b)
Procedure: A method for measuring the radius of a micelle is not particularly limited, and a method well known in the art may be used, and for example, the radius thereof may be measured using a dynamic light scattering (DLS) experiment.
as §1, §2

[3] = system: leucine transporter (LeuT); experiment: LeuT stability: [3H]-Leu substrate binding by scintillation proximity assay (SPA); design: species or system Aquifex aeolicus; conditions: t=12 day, CMC+0.04 wt %, room temperature
Procedure: An experiment for measuring the stability of LeuT protein with NBMs was performed. Concentrations of individual amphiphilic compounds were (a) CMC+0.04 wt % and (b) CMC+0.2 wt %, and the stability of the LeuT protein was evaluated by measuring a LeuT substrate binding activity using [3H]-Leu via scintillation proximity assay (SPA). The measurement was performed at regular intervals during 12-day incubation at room temperature. Specifically, a wild-type leucine transporter (LeuT) derived from thermophilic bacteria Aquifex aeolicus was purified by the method described previously (G. Deckert et al., Nature 1998, 392, 353-358). LeuT was expressed in E. coli C41 (DE3) transformed with pET16b encoding C-terminally 8× His-tagged transporter (the expression plasmid was provided by Dr E. Gouaux, Vollum Institute, Portland, Oreg., USA). […] Protein samples were stored for 12 days at room temperature, and centrifuged at predetermined points of time, the substrate ([3H]-leucine)-binding activity of the transporter was determined via SPA by taking advantage of protein properties. […] Total [3H]-leucine binding for the respective samples was measured using a MicroBeta liquid scintillation counter (Perkin Elmer).

[4] = molecular target: T1, human β2 adrenergic receptor (β2AR) (Homo sapiens, UniProt P07550); experiment: β2AR stability: [3H]-DHA ligand binding activity of solubilized receptor; conditions: 0.2% amphiphile, room temperature, 3 days (7 days for receptor extracted with the amphiphile)
T1 construct: made in house
Procedure: An experiment of measuring the stability of human β2 adrenergic receptor (β2AR) and G-protein-coupled receptor (GPCR) for NBMs was carried out. That is, the receptor was extracted from the cell membranes by DDM and purified in the same amphiphilic compound. The DDM-purified receptor was diluted in individual DDM- or NBM-containing buffers to adjust the final compound concentration to be CMC+0.2 wt %. The receptor stability was assessed by measuring ligand binding activity using [3H]-DHA.
To measure long-term stability of human β2AR with NBMs (D-NBM-C11 and X-NBM-C11) showing an excellent ligand binding activity of the receptor in the previous experiment, a radio-labeled ligand binding experiment was performed by the following method. β2AR was purified using 0.1% DDM (D. M. Rosenbaum et al., Science, 2007, 318, 1266-1273), and finally concentrated to approximately 10 mg/ml (approximately 200 μM). A main binding mixture containing 10 nM [^3H]-DHA supplemented with 0.5 mg/ml BSA was prepared in 0.2% amphiphilic compound (DDM or NBMs (D-NBM-C11 and X-NBM-C11)) using β2AR purified with DDM. The receptor purified with DDM or NBMs was incubated with 10 nM [^3H]-DHA at room temperature for 30 minutes. The mixture was loaded onto a G-50 column, the fractions were collected in a 1 ml binding buffer (20 mM HEPES pH 7.5, 100 mM NaCl, containing 0.5 mg/ml BSA and 20× CMC individual amphiphilic compounds). In addition, each fraction was supplemented with a 15 ml scintillation fluid, and receptor-bound [^3H]-DHA was measured using a scintillation counter (Beckman) at regular intervals for 3 days. The binding capacity of [^3H]-DHA was shown as a bar chart (FIG. 11a).
In addition, β2AR was extracted from the membrane using 1.0 wt % of DDM or X-NBM-C11 and purified at 0.2 wt % for the same individual amphiphilic compounds. Structural stability of the receptor was assessed by ligand binding activity, which was measured with sample aliquots at regular intervals during 7-day incubation at room temperature. Each experiment was carried out in triplicate (FIG. 12b).

T1 sequence (P07550 whole entry): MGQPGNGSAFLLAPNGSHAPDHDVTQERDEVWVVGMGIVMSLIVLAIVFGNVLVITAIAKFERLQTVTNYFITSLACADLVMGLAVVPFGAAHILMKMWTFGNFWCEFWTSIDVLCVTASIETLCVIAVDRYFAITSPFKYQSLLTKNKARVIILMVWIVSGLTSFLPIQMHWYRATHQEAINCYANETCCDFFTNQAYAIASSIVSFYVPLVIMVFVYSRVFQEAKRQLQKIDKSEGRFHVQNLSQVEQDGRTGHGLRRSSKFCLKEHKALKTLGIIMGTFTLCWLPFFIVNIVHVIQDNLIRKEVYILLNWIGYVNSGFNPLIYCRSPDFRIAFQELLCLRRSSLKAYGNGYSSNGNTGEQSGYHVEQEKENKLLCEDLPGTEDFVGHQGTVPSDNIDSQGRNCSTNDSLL

Structure (SMILES) | CMC [1] [mM] | CMC (wt %) [1] [wt %] | Rh (nm), hydrodynamic radius of micelles [2] [nm] | Micelle size change with temperature [2] | LeuT substrate binding activity at the end of incubation [3] | Long-term ligand binding activity of β2AR ([3H]-DHA) [4]
CCCCCCCCCCCOCC1C2CC([C@@H]1COCCCCCCCCCCC)[C@H](O[C@@H]1OC(CO)[C@@H](O[C@H]3OC(CO)[C@@H](O)C(O)C3O)C(O)C1O)C2O[C@@H]1OC(CO)[C@@H](O[C@H]2OC(CO)[C@@H](O)C(O)C2O)C(O)C1O (stereo partly drawn) [D-NBM-C11] | ~0.007 | ~0.0008 | 3.7 ± 0.05 | not influenced by a temperature change | a little less than the initial activity of LeuT solubilized in DDM | well retained
CCCCCCCCCCCOCC1C2CC([C@H]1COCCCCCCCCCCC)[C@H](O[C@@H]1OC(CO)[C@@H](O[C@H]3OC(CO)[C@@H](O)C(O)C3O)C(O)C1O)C2O[C@@H]1OC(CO)[C@@H](O[C@H]2OC(CO)[C@@H](O)C(O)C2O)C(O)C1O (stereo partly drawn) [X-NBM-C11] | ~0.006 | ~0.0007 | 17.3 ± 0.10 | changed according to a temperature | a little less than the initial activity of LeuT solubilized in DDM | well retained; also recorded: highest ligand binding retention property
